Experimental data reported in PubChem BioAssay AID256 (DTP/NCI, 2004).
“And” between values parts separate entries of the source, which are not always exact repeats. Equal values may be shown once. Inconclusive results and toxic doses are left out.

Test system: CD2F1 mice, L1210 leukemia ip, survival T/C
Assay: NCI In Vivo Anticancer Drug Screen. Data for tumor model L1210 Leukemia (intraperitoneal) in CD2F1 (CDF1) mice
Conditions: higher = longer survival
Outline: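 Compound-dosed mice with transplantable tumor versus matched vehicle controls; endpoint ratio T/C reported.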

[1] = endpoint: mean survival time, dose: 12.5 mg/kg/injection, schedule: Q01DX009 (ip), vehicle: Klucel (hydroxypropylcellulose) (HPC)
[2] = endpoint: mean survival time, dose: 25.0 mg/kg/injection, schedule: Q01DX009 (ip), vehicle: saline with Tween-80
[3] = endpoint: mean survival time, dose: 50.0 mg/kg/injection, schedule: Q01DX009 (ip), vehicle: saline with Tween-80
[4] = endpoint: mean survival time, dose: 100.0 mg/kg/injection, schedule: Q01DX009 (ip), vehicle: saline with Tween-80
[5] = endpoint: mean survival time, dose: 200.0 mg/kg/injection, schedule: Q01DX009 (ip), vehicle: saline with Tween-80
[6] = endpoint: mean survival time, dose: 100.0 mg/kg/injection, schedule: Q04DX003 (ip), vehicle: saline with Tween-80
[7] = endpoint: mean survival time, dose: 200.0 mg/kg/injection, schedule: Q04DX003 (ip), vehicle: saline with Tween-80
[8] = endpoint: mean survival time, dose: 100.0 mg/kg/injection, schedule: Q04DX003 (ip), vehicle: saline
[9] = endpoint: mean survival time, dose: 200.0 mg/kg/injection, schedule: Q04DX003 (ip), vehicle: saline
[10] = endpoint: mean survival time, dose: 400.0 mg/kg/injection, schedule: Q04DX003 (ip), vehicle: saline with Tween-80
[11] = endpoint: mean survival time, dose: 50.0 mg/kg/injection, schedule: Q01DX009 (ip), vehicle: other
[12] = endpoint: mean survival time, dose: 100.0 mg/kg/injection, schedule: Q01DX009 (ip), vehicle: other
[13] = endpoint: mean survival time, dose: 200.0 mg/kg/injection, schedule: Q01DX009 (ip), vehicle: other

SMILES: Cc1c(N)nc([C@H](CC(N)=O)NC[C@H](N)C(N)=O)nc1C(=O)N[C@H](C(=O)N[C@H](C)[C@@H](O)CC(=O)N[C@H](C(=O)NC(O[C@@H]1O[C@@H](C)[C@@H](N)[C@@H](O)[C@H]1O)C(O)c1nc(-c2nc(C(=O)NCCCCN)cs2)cs1)[C@@H](C)O)[C@@H](O[C@@H]1O[C@@H](CO)[C@@H](O)[C@H](O)[C@@H]1O[C@H]1O[C@H](CO)[C@@H](O)[C@H](OC(N)=O)[C@@H]1O)c1c[nH]cn1 (stereo partly drawn)
- T/C (endpoint: median survival time, dose: 1.0 mg/kg/injection, schedule: Q01DX009 (ip), vehicle: saline): 106 % of control
- T/C (endpoint: median survival time, dose: 2.0 mg/kg/injection, schedule: Q01DX009 (ip), vehicle: saline): 112 % of control
- T/C (endpoint: median survival time, dose: 4.0 mg/kg/injection, schedule: Q01DX009 (ip), vehicle: saline): 119 % of control
- T/C (endpoint: median survival time, dose: 8.0 mg/kg/injection, schedule: Q01DX009 (ip), vehicle: saline): 118 % of control
- T/C (endpoint: median survival time, dose: 16.0 mg/kg/injection, schedule: Q01DX009 (ip), vehicle: saline): 120 % of control
- T/C (endpoint: median survival time, dose: 32.0 mg/kg/injection, schedule: Q01DX009 (ip), vehicle: saline): 108 % of control

SMILES: C#CCN(C)/N=N/c1nc[nH]c1C(N)=O
- T/C [1]: 123 % of control
- T/C (endpoint: mean survival time, dose: 200.0 mg/kg/injection, schedule: Q01DX009 (ip), vehicle: Klucel (hydroxypropylcellulose) (HPC)): 98 % of control

SMILES: CC(=O)NC(Cc1ccc(F)cc1)C(=O)O (stereo not drawn)
- T/C [2]: 95 % of control and 97 % of control
- T/C [3]: 97 % of control and 98 % of control
- T/C [4]: 95 % of control and 103 % of control
- T/C [5]: 95 % of control and 101 % of control
- T/C (endpoint: mean survival time, dose: 400.0 mg/kg/injection, schedule: Q01DX009 (ip), vehicle: saline with Tween-80): 98 % of control and 101 % of control
- T/C (endpoint: mean survival time, dose: 800.0 mg/kg/injection, schedule: Q01DX009 (ip), vehicle: saline with Tween-80): 97 % of control and 105 % of control

SMILES: CCCCCCN(CCCCCC)CC(O)c1cccc2c1cc(Cl)c1ccccc12 (stereo not drawn)
- T/C [3]: 96 % of control
- T/C [4]: 100 % of control
- T/C [6]: 95 % of control
- T/C [5]: 98 % of control
- T/C [7]: 101 % of control

SMILES: CC(=O)N(C(C)=O)c1ncc2ccccc2c1-c1ccc(N)cc1
- T/C (endpoint: mean survival time, dose: 25.0 mg/kg/injection, schedule: Q04DX003 (ip), vehicle: saline with Tween-80): 92 % of control
- T/C (endpoint: mean survival time, dose: 50.0 mg/kg/injection, schedule: Q04DX003 (ip), vehicle: saline with Tween-80): 89 % of control
- T/C [6]: 94 % of control

SMILES: O=C(O)/C=C(/CC(=O)O)C(=O)O
- T/C [8]: 98 % of control
- T/C [9]: 94 % of control

SMILES: Oc1ccc2ccccc2c1Cc1ccccc1
- T/C [6]: 101 % of control
- T/C [7]: 97 % of control
- T/C [10]: 98 % of control

SMILES: N=C(N)SCc1cccc2c(=O)cc(-c3ccccc3)oc12
- T/C [2]: 95 % of control
- T/C [3]: 96 % of control
- T/C [4]: 101 % of control
- T/C [5]: 104 % of control
- T/C (endpoint: median survival time, dose: 25.0 mg/kg/injection, schedule: Q01DX009 (ip), vehicle: saline): 113 % of control
- T/C (endpoint: median survival time, dose: 50.0 mg/kg/injection, schedule: Q01DX009 (ip), vehicle: saline): 113 % of control
- T/C (endpoint: median survival time, dose: 100.0 mg/kg/injection, schedule: Q01DX009 (ip), vehicle: saline): 114 % of control
- T/C (endpoint: median survival time, dose: 200.0 mg/kg/injection, schedule: Q01DX009 (ip), vehicle: saline): 113 % of control
- T/C (endpoint: median survival time, dose: 400.0 mg/kg/injection, schedule: Q01DX009 (ip), vehicle: saline): 97 % of control

SMILES: Cc1ccccc1OCCO
- T/C [11]: 100 % of control
- T/C [12]: 116 % of control and 100 % of control
- T/C [13]: 102 % of control and 103 % of control
- T/C (endpoint: mean survival time, dose: 400.0 mg/kg/injection, schedule: Q01DX009 (ip), vehicle: other): 100 % of control

SMILES: O=[N+]([O-])O.[Cr+3].[NH2-].[NH2-].[NH2-].[NH2-].[NH2-].[NH2-]
- T/C (endpoint: mean survival time, dose: 6.25 mg/kg/injection, schedule: Q01DX009 (ip), vehicle: saline sonified): 88 % of control
- T/C (endpoint: mean survival time, dose: 12.5 mg/kg/injection, schedule: Q01DX009 (ip), vehicle: saline sonified): 97 % of control
- T/C (endpoint: mean survival time, dose: 25.0 mg/kg/injection, schedule: Q01DX009 (ip), vehicle: saline sonified): 90 % of control

SMILES: O=S1(=O)C2CCC(C2)C1Cl (stereo not drawn)
- T/C [6]: 88 % of control

SMILES: COc1cc2c(c(OC)c1OC)-c1cc(I)c(O)cc1[C@@H](NC(C)=O)CC2
- T/C [4]: 98 % of control

SMILES: NC(CSC(c1ccccc1)(c1ccccc1)c1ccccc1)C(=O)NCC(=O)O (stereo not drawn)
- T/C (endpoint: mean survival time, dose: 25.0 mg/kg/injection, schedule: Q01DX009 (ip), vehicle: saline): 110 % of control
- T/C (endpoint: mean survival time, dose: 200.0 mg/kg/injection, schedule: Q01DX009 (ip), vehicle: saline): 171 % of control

SMILES: Nc1cccc(OCc2ccc([N+](=O)[O-])cc2)c1
- T/C (endpoint: mean survival time, dose: 100.0 mg/kg/injection, schedule: Q04DX002 (ip), vehicle: Klucel (hydroxypropylcellulose) (HPC)): 86 % of control
- T/C (endpoint: mean survival time, dose: 200.0 mg/kg/injection, schedule: Q04DX002 (ip), vehicle: Klucel (hydroxypropylcellulose) (HPC)): 107 % of control
- T/C (endpoint: mean survival time, dose: 400.0 mg/kg/injection, schedule: Q04DX002 (ip), vehicle: Klucel (hydroxypropylcellulose) (HPC)): 95 % of control

SMILES: N=c1ccccn1CCO
- T/C (endpoint: mean survival time, dose: 75.0 mg/kg/injection, schedule: Q01DX001 (ip), vehicle: saline): 100 % of control
- T/C (endpoint: mean survival time, dose: 150.0 mg/kg/injection, schedule: Q01DX001 (ip), vehicle: saline): 108 % of control

SMILES: CC1CC2(C)C(CC1=O)CC(C)C1C3CCC(O)C3(C)CCC12 (stereo not drawn)
- T/C [6]: 97 % of control
- T/C [7]: 92 % of control
- T/C [10]: 95 % of control

SMILES: CCCCN(CCCC)c1cc(C(C)=O)c2ccccc2n1
- T/C (endpoint: mean survival time, dose: 50.0 mg/kg/injection, schedule: Q04DX003 (ip), vehicle: saline): 102 % of control
- T/C [8]: 102 % of control
- T/C [9]: 102 % of control

SMILES: CCCCCC(O)C1CCCCC1C (stereo not drawn)
- T/C [6]: 105 % of control
- T/C [7]: 102 % of control
- T/C [10]: 90 % of control

SMILES: CC(C)(C)CC(C)(C)c1ccc(Oc2ccc([N+](=O)[O-])cc2S(=O)(=O)O)cc1
- T/C (endpoint: mean survival time, dose: 6.25 mg/kg/injection, schedule: Q04DX002 (ip), vehicle: saline with Tween-80): 96 % of control
- T/C (endpoint: mean survival time, dose: 12.5 mg/kg/injection, schedule: Q04DX002 (ip), vehicle: saline with Tween-80): 114 % of control
- T/C (endpoint: mean survival time, dose: 25.0 mg/kg/injection, schedule: Q04DX002 (ip), vehicle: saline with Tween-80): 87 % of control and 93 % of control

SMILES: CCOc1ccccc1NC(=O)NC1C(OC(C)=O)OC(COC(C)=O)C(OC(C)=O)C1OC(C)=O (stereo not drawn)
- T/C (endpoint: mean survival time, dose: 12.5 mg/kg/injection, schedule: Q01DX009 (ip), vehicle: other): 94 % of control
- T/C (endpoint: mean survival time, dose: 25.0 mg/kg/injection, schedule: Q01DX009 (ip), vehicle: other): 100 % of control
- T/C [11]: 94 % of control
- T/C [12]: 96 % of control
- T/C [13]: 90 % of control

SMILES: O=C(O)CCC(=O)c1ccc([N+](=O)[O-])cc1
- T/C (endpoint: mean survival time, dose: 100.0 mg/kg/injection, schedule: Q01DX001 (ip), vehicle: saline): 101 % of control
- T/C (endpoint: mean survival time, dose: 200.0 mg/kg/injection, schedule: Q01DX001 (ip), vehicle: saline): 97 % of control
- T/C (endpoint: mean survival time, dose: 400.0 mg/kg/injection, schedule: Q01DX001 (ip), vehicle: saline): 97 % of control

SMILES: CN(C(=S)S(=O)(=O)C12CC3CC(CC(C3)C1)C2)c1ccccc1
- T/C (endpoint: mean survival time, dose: 3.12 mg/kg/injection, schedule: Q01DX009 (ip), vehicle: Klucel (hydroxypropylcellulose) (HPC)): 94 % of control and 96 % of control and 105 % of control
- T/C (endpoint: mean survival time, dose: 6.25 mg/kg/injection, schedule: Q01DX009 (ip), vehicle: Klucel (hydroxypropylcellulose) (HPC)): 100 % of control (2×) and 105 % of control
- T/C [1]: 100 % of control and 102 % of control and 107 % of control
- T/C (endpoint: mean survival time, dose: 25.0 mg/kg/injection, schedule: Q01DX009 (ip), vehicle: Klucel (hydroxypropylcellulose) (HPC)): 98 % of control and 102 % of control and 107 % of control
- T/C (endpoint: mean survival time, dose: 50.0 mg/kg/injection, schedule: Q01DX009 (ip), vehicle: Klucel (hydroxypropylcellulose) (HPC)): 96 % of control and 104 % of control and 105 % of control
- T/C (endpoint: mean survival time, dose: 100.0 mg/kg/injection, schedule: Q01DX009 (ip), vehicle: Klucel (hydroxypropylcellulose) (HPC)): 117 % of control and 96 % of control and 102 % of control

SMILES: CC(C)(C)[Si](C)(C)OP(=O)(O[Si](C)(C)C(C)(C)C)N(CCCl)CCCl
- T/C (endpoint: mean survival time, dose: 15.63 mg/kg/injection, schedule: Q01DX001 (ip), vehicle: distilled water + Tween-80): 97 % of control
- T/C (endpoint: mean survival time, dose: 31.3 mg/kg/injection, schedule: Q01DX001 (ip), vehicle: distilled water + Tween-80): 103 % of control
- T/C (endpoint: mean survival time, dose: 62.5 mg/kg/injection, schedule: Q01DX001 (ip), vehicle: distilled water + Tween-80): 106 % of control
- T/C (endpoint: mean survival time, dose: 125.0 mg/kg/injection, schedule: Q01DX001 (ip), vehicle: distilled water + Tween-80): 105 % of control
- T/C (endpoint: mean survival time, dose: 250.0 mg/kg/injection, schedule: Q01DX001 (ip), vehicle: distilled water + Tween-80): 101 % of control
- T/C (endpoint: mean survival time, dose: 500.0 mg/kg/injection, schedule: Q01DX001 (ip), vehicle: distilled water + Tween-80): 109 % of control

SMILES: CCOC/C(C)=C/Cl
- T/C (endpoint: mean survival time, dose: 100.0 mg/kg/injection, schedule: Q01DX009 (ip), vehicle: acetone): 106 % of control
- T/C (endpoint: mean survival time, dose: 200.0 mg/kg/injection, schedule: Q01DX009 (ip), vehicle: acetone): 103 % of control

SMILES: Clc1ccc(C2(c3ccncc3)OCCO2)cc1
- T/C [8]: 101 % of control
- T/C [9]: 101 % of control
